Measured values as given in PubChem BioAssay (NCI).
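48-hour exposure; five concentrations; linearly interpolated endpoints. GI50 marks 50% less growth. The concentration for full growth arrest is given as TGI.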

Columns and labels:
Assay in all cases: inhibition of tumour cell growth, NCI panel, 48 h
MOLT-4 leukemia = system: MOLT-4 leukemia
RPMI-8226 leukemia = system: RPMI-8226 leukemia
SF-268 CNS = system: SF-268 CNS
COLO 205 colon = system: COLO 205 colon
ACHN renal = system: ACHN renal
T-47D breast = system: T-47D breast
UACC-257 melanoma = system: UACC-257 melanoma
SK-MEL-28 melanoma = system: SK-MEL-28 melanoma
SW-620 colon = system: SW-620 colon
DU-145 prostate = system: DU-145 prostate
TK-10 renal = system: TK-10 renal
NCI-H23 lung = system: NCI-H23 lung
UO-31 renal = system: UO-31 renal
EKVX NSCLC = system: EKVX NSCLC
MCF7 breast = system: MCF7 breast
SK-MEL-5 melanoma = system: SK-MEL-5 melanoma
MDA-MB-435 = system: MDA-MB-435
RXF 393 renal = system: RXF 393 renal
HT29 colon = system: HT29 colon
SNB-19 CNS = system: SNB-19 CNS
LOX IMVI melanoma = system: LOX IMVI melanoma
CAKI-1 renal = system: CAKI-1 renal
HS 578T breast = system: HS 578T breast
HOP-92 NSCLC = system: HOP-92 NSCLC
HCC-2998 colon = system: HCC-2998 colon
A549 NSCLC = system: A549 NSCLC
IGROV1 ovarian = system: IGROV1 ovarian
NCI-H522 lung = system: NCI-H522 lung
U251 CNS = system: U251 CNS
786-0 renal = system: 786-0 renal
A498 renal = system: A498 renal
OVCAR-3 ovarian = system: OVCAR-3 ovarian
SR leukemia = system: SR leukemia
SF-539 CNS = system: SF-539 CNS
PC-3 prostate = system: PC-3 prostate
HCT-116 colon = system: HCT-116 colon
MALME-3M melanoma = system: MALME-3M melanoma
OVCAR-5 ovarian = system: OVCAR-5 ovarian
OVCAR-4 ovarian = system: OVCAR-4 ovarian
SK-MEL-2 melanoma = system: SK-MEL-2 melanoma
NCI-H226 lung = system: NCI-H226 lung
M14 melanoma = system: M14 melanoma
NCI-H460 lung = system: NCI-H460 lung
KM12 colon = system: KM12 colon
OVCAR-8 ovarian = system: OVCAR-8 ovarian
K-562 leukemia = system: K-562 leukemia
SF-295 CNS = system: SF-295 CNS
HCT-15 colon = system: HCT-15 colon
SN12C renal = system: SN12C renal
MDA-MB-231 breast = system: MDA-MB-231 breast
UACC-62 melanoma = system: UACC-62 melanoma
NCI/ADR-RES ovarian = system: NCI/ADR-RES ovarian
BT-549 breast = system: BT-549 breast
SK-OV-3 ovarian = system: SK-OV-3 ovarian
HOP-62 NSCLC = system: HOP-62 NSCLC

For Nc1nc(SCc2ccccc2)nc2[nH]ncc12, the GI50 (MOLT-4 leukemia) was 25.7 µM, the TGI (MOLT-4 leukemia) was over 100 µM and the GI50 (RPMI-8226 leukemia) was 7.76 µM. It also gave a TGI (RPMI-8226 leukemia) of 46 µM, a GI50 (SF-268 CNS) of 20.5 µM and a TGI (SF-268 CNS) of 69.2 µM. It also gave a GI50 (COLO 205 colon) of 17.1 µM, a TGI (COLO 205 colon) of 53.6 µM and a GI50 (ACHN renal) of 15.5 µM. The TGI (ACHN renal) was 31.6 µM, the GI50 (T-47D breast) was 4.15 µM and the TGI (T-47D breast) was 15.6 µM. The GI50 (UACC-257 melanoma) was 14.6 µM, the TGI (UACC-257 melanoma) was 28.1 µM and the GI50 (SK-MEL-28 melanoma) was 17.1 µM. The TGI (SK-MEL-28 melanoma) was 35.9 µM, the GI50 (SW-620 colon) was 17.9 µM and the TGI (SW-620 colon) was 37.6 µM. It also gave a GI50 (DU-145 prostate) of 21.2 µM, a TGI (DU-145 prostate) of 55.4 µM and a GI50 (TK-10 renal) of 10 µM. For the same compound, the TGI (TK-10 renal) was 21.9 µM, the GI50 (NCI-H23 lung) was 12.6 µM and the TGI (NCI-H23 lung) was 25.8 µM. For the same compound, the GI50 (UO-31 renal) was 18 µM, the TGI (UO-31 renal) was 38.4 µM and the GI50 (EKVX NSCLC) was 16.1 µM. For the same compound, the TGI (EKVX NSCLC) was 35.8 µM, the GI50 (MCF7 breast) was 11.8 µM and the TGI (MCF7 breast) was 26.6 µM. The GI50 (SK-MEL-5 melanoma) was 12 µM, the TGI (SK-MEL-5 melanoma) was 25.1 µM and the GI50 (MDA-MB-435) was 15.8 µM. For the same compound, the TGI (MDA-MB-435) was 29.9 µM, the GI50 (RXF 393 renal) was 3.62 µM and the TGI (RXF 393 renal) was 11.5 µM. For the same compound, the GI50 (HT29 colon) was 17.1 µM, the TGI (HT29 colon) was 49.3 µM and the GI50 (SNB-19 CNS) was 19.8 µM. The TGI (SNB-19 CNS) was 42.4 µM, the GI50 (LOX IMVI melanoma) was 20.8 µM and the TGI (LOX IMVI melanoma) was 58.2 µM. It also gave a GI50 (CAKI-1 renal) of 15.2 µM, a TGI (CAKI-1 renal) of 28.8 µM and a GI50 (HS 578T breast) of 14.3 µM. It also gave a TGI (HS 578T breast) of 34.5 µM, a GI50 (HOP-92 NSCLC) of 2.54 µM and a TGI (HOP-92 NSCLC) of 11.7 µM. The GI50 (HCC-2998 colon) was 19.6 µM, the TGI (HCC-2998 colon) was 34.4 µM and the GI50 (A549 NSCLC) was 13.6 µM. The TGI (A549 NSCLC) was 29.1 µM, the GI50 (IGROV1 ovarian) was 19.4 µM and the TGI (IGROV1 ovarian) was 41.8 µM. It also gave a GI50 (NCI-H522 lung) of 17.9 µM, a TGI (NCI-H522 lung) of 46 µM and a GI50 (U251 CNS) of 14.9 µM. The TGI (U251 CNS) was 33.6 µM, the GI50 (786-0 renal) was 18.7 µM and the TGI (786-0 renal) was 36 µM. For the same compound, the GI50 (A498 renal) was 10 µM, the TGI (A498 renal) was 22.2 µM and the GI50 (OVCAR-3 ovarian) was 12.6 µM. It also gave a TGI (OVCAR-3 ovarian) of 25.7 µM, a GI50 (SR leukemia) of 18 µM and a TGI (SR leukemia) of 51.1 µM. The GI50 (SF-539 CNS) was 19 µM, the TGI (SF-539 CNS) was 41.7 µM and the GI50 (PC-3 prostate) was 13.7 µM. The TGI (PC-3 prostate) was 28.7 µM, the GI50 (HCT-116 colon) was 13.2 µM and the TGI (HCT-116 colon) was 26.3 µM. It also gave a GI50 (MALME-3M melanoma) of 11.7 µM, a TGI (MALME-3M melanoma) of 24.3 µM and a GI50 (OVCAR-5 ovarian) of 17.6 µM. The TGI (OVCAR-5 ovarian) was 31.7 µM, the GI50 (OVCAR-4 ovarian) was 12.2 µM and the TGI (OVCAR-4 ovarian) was 37.1 µM. For the same compound, the GI50 (SK-MEL-2 melanoma) was 20.7 µM, the TGI (SK-MEL-2 melanoma) was 48.9 µM and the GI50 (NCI-H226 lung) was 13.4 µM. For the same compound, the TGI (NCI-H226 lung) was 27.4 µM, the GI50 (M14 melanoma) was 19.4 µM and the TGI (M14 melanoma) was 34.8 µM. It also gave a GI50 (NCI-H460 lung) of 12.3 µM, a TGI (NCI-H460 lung) of 29.4 µM and a GI50 (KM12 colon) of 14.1 µM. The TGI (KM12 colon) was 28.4 µM, the GI50 (OVCAR-8 ovarian) was 25.9 µM and the TGI (OVCAR-8 ovarian) was over 100 µM. The GI50 (K-562 leukemia) was 14.3 µM, the TGI (K-562 leukemia) was over 100 µM and the GI50 (SF-295 CNS) was 14.8 µM. It also gave a TGI (SF-295 CNS) of 29 µM, a GI50 (HCT-15 colon) of 20.4 µM and a TGI (HCT-15 colon) of over 100 µM. It also gave a GI50 (SN12C renal) of 16.9 µM, a TGI (SN12C renal) of 31.3 µM and a GI50 (MDA-MB-231 breast) of 16.4 µM. The TGI (MDA-MB-231 breast) was 31.7 µM, the GI50 (UACC-62 melanoma) was 14.4 µM and the TGI (UACC-62 melanoma) was 27.9 µM. For the same compound, the GI50 (NCI/ADR-RES ovarian) was 12.3 µM, the TGI (NCI/ADR-RES ovarian) was 27.8 µM and the GI50 (BT-549 breast) was 17.3 µM. For the same compound, the TGI (BT-549 breast) was 35.1 µM, the GI50 (SK-OV-3 ovarian) was 20 µM and the TGI (SK-OV-3 ovarian) was 39.1 µM. The GI50 (HOP-62 NSCLC) was 18.7 µM and the TGI (HOP-62 NSCLC) was 33.4 µM.
